Source: BindingDB's records for doi:10.1016/j.bioorg.2015.05.008 (Universidade Do Porto, 2015)

Experiments:
Assay in all cases: Radioligand Binding Assay
Adenosine receptor A1 = molecular target: T1, Adenosine receptor A1 (Homo sapiens, UniProt P30542)
T1 sequence (P30542 whole entry): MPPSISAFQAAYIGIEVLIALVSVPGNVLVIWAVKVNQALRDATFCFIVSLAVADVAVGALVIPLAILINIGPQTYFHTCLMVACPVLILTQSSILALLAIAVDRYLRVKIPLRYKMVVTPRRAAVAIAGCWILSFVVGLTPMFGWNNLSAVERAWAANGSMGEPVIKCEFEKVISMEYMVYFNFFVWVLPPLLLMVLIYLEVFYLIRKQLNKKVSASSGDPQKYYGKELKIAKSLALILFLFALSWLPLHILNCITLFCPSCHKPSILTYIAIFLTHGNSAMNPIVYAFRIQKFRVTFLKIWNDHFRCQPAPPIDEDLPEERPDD
Description: (§1) The radioligands used were 1 nM (2R,3R,4S,5R)-2-(2-chloro-6-cyclopentylamino-purin-9-yl)-5-hydroxymethyl-tetrahydro-3,4-diol ([3H]CCPA) for hA1, 10 nM (1-(6-amino-9H-purin-9-yl)-1-deoxy-N-ethyl-β-D-ribofuronamide) ([3H]NECA) for hA2a, and 1 nM 2-(1-hexynyl)-N6-methyladenosine [3H] ([3H]HEMADO) for hA3 receptors.

Adenosine receptor A2a = Adenosine receptor A2a (Homo sapiens, UniProt P29274)
Description: as §1

Adenosine receptor A3 = molecular target: T2, Adenosine receptor A3 (Homo sapiens, UniProt P0DMS8)
T2 sequence (P0DMS8 whole entry): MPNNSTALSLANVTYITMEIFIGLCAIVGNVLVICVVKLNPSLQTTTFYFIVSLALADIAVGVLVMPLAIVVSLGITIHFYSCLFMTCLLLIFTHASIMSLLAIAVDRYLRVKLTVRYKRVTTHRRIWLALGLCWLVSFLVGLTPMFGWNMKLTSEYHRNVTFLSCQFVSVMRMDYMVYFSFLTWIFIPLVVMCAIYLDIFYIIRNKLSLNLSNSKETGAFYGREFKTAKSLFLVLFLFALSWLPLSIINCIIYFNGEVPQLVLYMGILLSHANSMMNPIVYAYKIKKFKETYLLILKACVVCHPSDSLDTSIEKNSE
Description: as §1

Sequence of Adenosine receptor A2a (P29274 whole entry): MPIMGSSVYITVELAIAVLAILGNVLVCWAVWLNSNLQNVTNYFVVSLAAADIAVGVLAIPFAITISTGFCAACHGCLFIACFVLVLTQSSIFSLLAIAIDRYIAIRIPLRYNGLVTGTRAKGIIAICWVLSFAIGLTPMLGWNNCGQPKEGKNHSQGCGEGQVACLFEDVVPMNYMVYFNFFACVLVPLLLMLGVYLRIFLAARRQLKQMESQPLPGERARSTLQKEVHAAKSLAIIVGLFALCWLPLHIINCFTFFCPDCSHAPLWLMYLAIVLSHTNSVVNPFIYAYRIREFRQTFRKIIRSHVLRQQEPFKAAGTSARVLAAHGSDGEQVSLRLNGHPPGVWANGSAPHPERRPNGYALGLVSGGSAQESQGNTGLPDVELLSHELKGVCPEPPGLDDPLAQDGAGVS

SMILES	Ki (Adenosine receptor A1)	Ki (Adenosine receptor A2a)	Ki (Adenosine receptor A3)
O=C(Nc1cc2ccccc2oc1=O)c1ccccc1 [N-(2-oxidanylidenechromen-3-yl)benzamide]	> 100 µM	> 100 µM	3.24 µM
C=CC(=O)Nc1c(O)c2ccccc2oc1=O [N-(4-Hydroxycoumarin-3-yl)acrylamide (3)]	> 100 µM	> 100 µM	> 100 µM
O=C(Nc1c(O)c2ccccc2oc1=O)c1ccccc1 [N-(4-hydroxycoumarin-3-yl)benzamide (5)]	> 100 µM	> 100 µM	> 100 µM
C=CC(=O)Nc1cc2ccccc2oc1=O [N-(Coumarin-3-yl)acrylamide (2)]	8.95 µM	12.2 µM	> 100 µM
O=C(Nc1cc2ccccc2oc1=O)c1ccco1 [N-(Coumarin-3-yl)furan-2-carboxamide (8)]	5.18 µM	> 100 µM	9.79 µM
O=C(Nc1cc2ccccc2oc1=O)c1cccnc1 [N-(coumarin-3-yl)nicotinamide (6)]	> 100 µM	> 100 µM	> 100 µM
O=C(Nc1cc2ccccc2oc1=O)c1cccs1 [N-(coumarin-3-yl)thiophene-2-carboxamide (7)]	16.2 µM	> 100 µM	> 60 µM
